# Measurements: patent US20100273726A1, “METHICILLIN-RESISTANT STAPHYLOCOCCUS AUREUS ACTIVE METABOLITES ISOLATED FROM LAURUS NOBILIS AND COMBINATIONS THEREOF” (TRITON BIOPHARMA, priority 2009, published 2010)
# Experiments:
# [1] = tested on: Methicillin-resistant Staphylococcus aureus; assay: In vivo MRSA assay, thigh infection in neutropenic mice; set-up: species or system Mice (CD-1); settings: for number of MRSA cfu per gram of muscle tissue: sacrificed after 48 hours; for reduction compared to vehicle control: 48 hours
# Experimental: The in vivo antimicrobial activity for the isolated glycosides is represented in FIGS. 2A and 2B. Mice (CD-1) were purchased from Harlan Inc. and acclimatized up to 5 days before use. Food and water were available ad libitum throughout the study. They were rendered neutropenic by two injections of cyclophosphamide (100 mg/kg) given intraperitoneally, one and four days before infection. A volume of 50 uL suspension of Methicillin-resistant Staphylococcus aureus (1.5×10^6 live organisms) was injected intramuscularly (1M) into each of the two rear thighs. Each thigh was considered as an individual data point (total of 4 data points for each treatment). These mice were randomly distributed into the control or treatment groups (n=2/group).
# Treatment with the test compound (1) was initiated via the intraperitoneal route 2 hrs after thigh inoculation. Control animals were concurrently administered saline (mock treatment) or vancomycin in the same volume as those receiving compound (1). All animals were sacrificed after 48 hours by CO2 inhalation. Immediately following sacrifice, thigh tissue was collected from the animals, weighed, and homogenized in 5.0 mL of saline. Thigh muscle homogenate was then processed for microbiological assay to determine the number of MRSA cfu per gram of muscle tissue.
# [2] = preliminary maximum tolerated dose experiment; assay type: in vivo; settings: maximum of 20 mg/kg IP for two days
# Experimental: The number of MRSA isolated from vancomycin treated animals was 2.2×10^7 g of tissue, a reduction of 72% compared to vehicle control. Similarly, the number of MRSA recovered after treatment with compound (1) at 3 mg/kg and 15 mg/kg were 2.6×10^7 and 1.8×10^7 respectively, which correspond to a reduction of 67% and 78% as compared to vehicle control. […] To determine the maximum tolerated dose in the preliminary experiment, a maximum of 20 mg/kg of compound (1) was giving IP for two days.
# [3] = tested on: methicillin resistant Staphylococcus aureus (MRSA); assay: in vitro antimicrobial evaluation (modified CLSI method); assay type: cell-based; settings: IC50 from percent growth versus test concentration
# Experimental: The in vitro antimicrobial activity for the isolated glycosides is represented in FIG. 1. A modified version of CLSI (formerly NCCLS) method was used for the in vitro evaluation of test samples. Duplicate samples were transferred to 96-well microplates after diluting with 0.9% saline. The microbial cell suspensions were to give the desired target inocula after addition to the samples. Media and solvent controls were included in each assay. The IC50 was calculated by plotting percent growth versus test concentration.
# [4] = tested on: MRSA; settings: background statement; cited from earlier work
# [5] = vancomycin control, dose not given
smiles,measurement,setting,value
"C[C@@H]1O[C@@H](Oc2c(-c3ccc(O)cc3)oc3cc(O)cc(O)c3c2=O)[C@H](OC(=O)/C=C/c2ccc(O)cc2)[C@H](OC(=O)/C=C/c2ccc(O)cc2)[C@H]1O [compound 1, kaempferol 3-O-α-L-(2″,3″-di-E-p-coumaroyl)rhamnoside]",number of MRSA cfu per gram of muscle tissue,"[1]; 3 mg/kg intraperitoneal, 2 hrs after inoculation",2.6×10^7 cfu/g
same,reduction compared to vehicle control,[1]; 3 mg/kg intraperitoneal,67%
same,number of MRSA cfu per gram of muscle tissue,"[1]; 15 mg/kg intraperitoneal, 2 hrs after inoculation",1.8×10^7 cfu/g
same,reduction compared to vehicle control,[1]; 15 mg/kg intraperitoneal,78%
same,acute toxicity / untoward effect,[2],No untoward effect
"C[C@@H]1O[C@@H](Oc2c(-c3ccc(O)cc3)oc3cc(O)cc(O)c3c2=O)[C@H](OC(=O)/C=C\c2ccc(O)cc2)[C@H](OC(=O)/C=C\c2ccc(O)cc2)[C@H]1O [compound 4, kaempferol 3-O-α-L-(2″,3″-di-Z-p-coumaroyl)rhamnoside]",in vitro activity (rank among the four compounds),[3],most potent
"CN[C@H](CC(C)C)C(=O)N[C@H]1C(=O)N[C@@H](CC(N)=O)C(=O)N[C@H]2C(=O)N[C@H]3C(=O)N[C@H](C(=O)N[C@H](C(=O)O)c4cc(O)cc(O)c4-c4cc3ccc4O)[C@H](O)c3ccc(c(Cl)c3)Oc3cc2cc(c3O[C@@H]2O[C@H](CO)[C@@H](O)[C@H](O)[C@H]2O[C@H]2C[C@](C)(N)[C@H](O)[C@H](C)O2)Oc2ccc(cc2Cl)[C@H]1O [vancomycin, reference compound]",reduction compared to vehicle control,[1]; [5],72%
same,number of MRSA cfu per gram of muscle tissue,[1]; [5],2.2×10^7 cfu/g
same,success rate,[4],35-57%
